Results reported in US20070249670A1, “Glycogen Phosphorylase Inhibitor Compounds and Pharmaceutical Compositions Thereof” (SMITHKLINE BEECHAM CORPORATION, priority 2004, published 2007).
Blank lines part the entries; values can stand above or below the compound they belong to.

Molecular target: T1, human liver glycogen phosphorylase a (HLGPa) (Homo sapiens, UniProt P06737)
T1 construct: creating a full-length cDNA fused at the 5′ end to codons for methionine-glycine-alanine-histidine; 6xHis tag (leader Met-Gly-Ala-His6-Gly-Gly) (N); made in house; host or cells: E. coli (bacterial expression plasmid pTXK1007LTev)
T1 sequence (P06737 2-847 limits assumed): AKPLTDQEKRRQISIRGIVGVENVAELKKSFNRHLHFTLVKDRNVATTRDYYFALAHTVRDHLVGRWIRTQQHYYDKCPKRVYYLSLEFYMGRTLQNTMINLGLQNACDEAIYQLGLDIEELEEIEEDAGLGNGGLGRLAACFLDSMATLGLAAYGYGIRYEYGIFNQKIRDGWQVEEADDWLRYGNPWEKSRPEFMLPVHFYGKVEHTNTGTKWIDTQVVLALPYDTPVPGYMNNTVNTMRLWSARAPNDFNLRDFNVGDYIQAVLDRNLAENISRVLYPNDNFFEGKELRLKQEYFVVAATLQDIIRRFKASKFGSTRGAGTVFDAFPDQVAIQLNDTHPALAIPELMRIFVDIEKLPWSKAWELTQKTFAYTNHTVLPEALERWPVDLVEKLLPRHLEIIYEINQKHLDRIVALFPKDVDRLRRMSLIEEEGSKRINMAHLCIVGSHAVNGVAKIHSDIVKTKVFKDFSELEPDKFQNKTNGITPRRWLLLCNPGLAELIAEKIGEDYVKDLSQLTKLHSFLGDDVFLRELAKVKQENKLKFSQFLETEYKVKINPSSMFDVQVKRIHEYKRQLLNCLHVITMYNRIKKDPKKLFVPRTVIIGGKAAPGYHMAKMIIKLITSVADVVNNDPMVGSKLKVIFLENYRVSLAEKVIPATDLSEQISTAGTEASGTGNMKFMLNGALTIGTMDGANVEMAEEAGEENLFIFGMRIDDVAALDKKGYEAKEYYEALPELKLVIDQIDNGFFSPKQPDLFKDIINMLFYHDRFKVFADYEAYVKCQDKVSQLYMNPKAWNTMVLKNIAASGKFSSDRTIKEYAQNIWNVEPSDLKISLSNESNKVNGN
Experiment: Human liver glycogen phosphorylase a enzymatic activity assay (coupled, fluorescent resorufin readout, with and without 10 mM glucose)
Assay type: biochemical

[1] = human liver glycogen phosphorylase a enzymatic activity assay
[2] = human liver glycogen phosphorylase a, table does not say whether with or without 10 mM glucose

SMILES: Cc1ccccc1NC(=O)Nc1cc2ccccc2cc1C(=O)N[C@@H](CCC(=O)O)C(=O)O [Example 42, N-[3-({[(2-methylphenyl)amino]carbonyl}amino)-2-naphthoyl]-L-glutamic acid]
IC50 [1]: 28300 nM

SMILES: Cc1cccc(C)c1NC(=O)Nc1cc(Cl)ccc1C(=O)N[C@H](C(=O)O)C1CCCCC1 [Example 167, (2S)-({[4-Chloro-2-({[(2,6-dimethylphenyl)amino]carbonyl}amino)phenyl]carbonyl}amino)(cyclohexyl)-ethanoic acid]
IC50 [1]: 390 nM

SMILES: Cc1ccccc1NC(=O)Nc1cc2ccccc2cc1C(=O)N[C@@H](Cc1cccs1)C(=O)O [Example 96, N-{[3-({[(2-methylphenyl)amino]carbonyl}amino)-2-naphthalenyl]carbonyl}-3-(2-thienyl)-L-alanine]
IC50 [1]: 5070 nM

SMILES: Cc1cc(C)c(NC(=O)Nc2cc(-c3ccccc3)ccc2C(=O)NC2(C(=O)O)CCCCCCC2)c(C)c1 [Example 529, 1-({[3-({[(2,4,6-Trimethylphenyl)amino]carbonyl}amino)-4-biphenylyl]carbonyl}amino)cyclooctanecarboxylic acid]
IC50 [1]: 2 nM

SMILES: COc1ccc(-c2cc(NC(=O)Nc3c(C)cc(C)cc3C)c(C(=O)N[C@@H](C(=O)O)C(C)C)s2)cc1 [Example 441, N-{[5-[4-(methyloxy)phenyl]-3-({[(2,4,6-trimethylphenyl)amino]carbonyl}amino)-2-thienyl]carbonyl}-D-valine]
IC50 [1]: 2110 nM

SMILES: O=C(Nc1sc(Cc2ccccc2)cc1C(=O)N[C@H](C(=O)O)C1CCCCC1)Nc1c(Cl)cccc1Cl [Example 399]
IC50 [1]: 6700 nM

SMILES: Cc1cc(C)c(NC(=O)Nc2cc(S(C)(=O)=O)ccc2C(=O)N[C@H](C(=O)O)C2CCCCC2)c(C)c1 [Example 220, (2S)-Cyclohexyl({[4-(methylsulfonyl)-2-({[(2,4,6-trimethylphenyl)amino]carbonyl}amino)phenyl]carbonyl}amino)ethanoic acid]
IC50 [2]: 1960 nM

SMILES: Cn1cc(-c2cc(C(=O)N[C@H](C(=O)O)C3CCCCC3)c(NC(=O)Nc3c(Cl)cccc3Cl)s2)cn1 [Example 423, (2S)-cyclohexyl({[2-({[(2,6-dichlorophenyl)amino]carbonyl}amino)-5-(1-methyl-1H-pyrazol-4-yl)-3-thienyl]carbonyl}amino)ethanoic acid]
IC50 [1]: 260 nM

SMILES: O=C(Nc1sc(Cc2ccccc2)cc1C(=O)O)Nc1c(Cl)cccc1Cl [Example 397, 2-({[(2,6-dichlorophenyl)amino]carbonyl}amino)-5-(phenylmethyl)-3-thiophenecarboxylic acid]
IC50 [1]: 14300 nM

SMILES: Cc1cc(C)c(NC(=O)Nc2cc3ccccc3cc2C(=O)O)c(C)c1 [Example 263, 3-({[(2,4,6-trimethylphenyl)amino]carbonyl}amino)-2-naphthalenecarboxylic acid]
IC50 [2]: 3460 nM

SMILES: CC[C@H](C)[C@H](NC(=O)c1cc2ccccc2cc1NC(=O)Nc1c(C)cccc1Cl)C(=O)O [Example 38, N-[3-({[(2-chloro-6-methylphenyl)amino]carbonyl}amino)-2-naphthoyl]-L-isoleucine]
IC50 [1]: 280 nM

SMILES: COC(=O)[C@@H](NC(=O)c1sc(-c2ccc(F)cc2)cc1NC(=O)Nc1c(Cl)cccc1Cl)C1CCCCC1 [Example 386, methyl(2S)-cyclohexyl({[3-({[(2,6-dichlorophenyl)amino]carbonyl}amino)-5-(4-fluorophenyl)-2-thienyl]carbonyl}amino)ethanoate]
IC50 [2]: 4300 nM

SMILES: O=C(Nc1sc(-c2ccccc2)cc1C(=O)O)Nc1c(Cl)cccc1Cl [Example 382, 2-({[(2,6-dichlorophenyl)amino]carbonyl}amino)-5-phenyl-3-thiophenecarboxylic acid]
IC50 [2]: 1170 nM

SMILES: Cc1cc(C)c(NC(=O)Nc2cc3ccccc3cc2C(=O)N[C@H](c2nnn[nH]2)C(C)C)c(C)c1 [Example 340, N-[(1S)-2-methyl-1-(1H-tetrazol-5-yl)propyl]-3-({[(2,4,6-trimethylphenyl)amino]carbonyl}amino)-2-naphthalenecarboxamide]
IC50 [2]: 340 nM

SMILES: CCCC[C@H](NC(=O)c1nc2ccccc2cc1NC(=O)Nc1c(C)cc(C)cc1C)C(=O)O [Example 313, N-{[3-({[(2,4,6-trimethylphenyl)amino]carbonyl}amino)-2-quinolinyl]carbonyl}-L-norleucine]
IC50 [2]: 160 nM

SMILES: Cc1cc(C)c(NC(=O)Nc2cc(-c3ccc4c(c3)OCCO4)ccc2C(=O)N[C@H](C(=O)O)C2CCCCC2)c(C)c1 [Example 228, (2S)-Cyclohexyl({[4-(2,3-dihydro-1,4-benzodioxin-6-yl)-2-({[(2,4,6-trimethylphenyl)amino]carbonyl}amino)phenyl]carbonyl}amino)ethanoic acid]
IC50 [2]: 4 nM

SMILES: O=C(Nc1cc(Cl)ccc1C(=O)N[C@H](C(=O)O)C1CCCCC1)Nc1c(Cl)cccc1Cl [Example 168, (2S)-({[4-Chloro-2-({[(2,6-dichlorophenyl)amino]carbonyl}amino)phenyl]carbonyl}amino)(cyclohexyl)-ethanoic acid]
IC50 [1]: 200 nM

SMILES: Cc1cccc(Cl)c1NC(=O)Nc1cc2ccccc2cc1C(=O)N[C@@H](CC(=O)O)C(=O)O [Example 84, N-[3-({[(2-chloro-6-methylphenyl)amino]carbonyl}amino)-2-naphthoyl]-L-aspartic acid]
IC50 [1]: 390 nM

Other lines, results leading:

IC50 [2]: 17500 nM
SMILES: Cc1cc(C(=O)N[C@H](C(=O)O)C2CCCCC2)c(NC(=O)Nc2c(Cl)cccc2Cl)s1 [Example 390, (2S)-cyclohexyl({f[2-({[(2,6-dichlorophenyl)amino]carbonyl}amino)-5-methyl-3-thienyl]carbonyl}amino)ethanoic acid]

IC50 [1]: 43 nM
SMILES: CCCC[C@H](NC(=O)c1sc(-c2ccc(OC)cc2)cc1NC(=O)Nc1c(C)cc(C)cc1C)C(=O)O [Example 443, N-{[5-[4-(methyloxy)phenyl]-3-({[(2,4,6-trimethylphenyl)amino]carbonyl}amino)-2-thienyl]carbonyl}-L-norleucine]

IC50 [2]: 44 nM
SMILES: Cc1cc(C)c(NC(=O)Nc2cc3ccccc3cc2C(=O)NC(C(=O)O)C2CCC(NC(=O)OC(C)(C)C)CC2)c(C)c1 (mixture of isomers) [Example 350, (cis and trans)-[4-({[(1,1-dimethylethyl)oxy]carbonyl}amino)cyclohexyl]({[3-({[(2,4,6-trimethylphenyl)amino]carbonyl}amino)-2-naphthalenyl]carbonyl}amino)acetic acid]

IC50 [1]: 14900 nM
SMILES: COC(=O)[C@@H](NC(=O)c1sc(-c2ccncc2)cc1NC(=O)Nc1c(Cl)cccc1Cl)C1CCCCC1 [Example 401, methyl(2S)-cyclohexyl({[3-({[(2,6-dichlorophenyl)amino]carbonyl}amino)-5-(4-pyridinyl)-2-thienyl]carbonyl}amino)ethanoate]

IC50 [2]: 27 nM
SMILES: Cc1cc(C)c(NC(=O)Nc2cc3ccccc3nc2C(=O)N[C@H](C(=O)O)C2CCCCC2)c(C)c1 [Example 300, (2S)-Cyclohexyl({[3-({[(2,4,6-trimethylphenyl)amino]carbonyl}amino)-2-quinolinyl]carbonyl}amino)ethanoic acid]

IC50 [1]: 1310 nM
SMILES: COc1ccc(-c2cc(C(=O)O)c(NC(=O)Nc3c(Cl)cc(OC(F)(F)F)cc3Cl)s2)cc1 [Example 426, 2-{[({2,6-dichloro-4-[(trifluoromethyl)oxy]phenyl}amino)carbonyl]amino}-5-[4-(methyloxy)phenyl]-3-thiophenecarboxylic acid]

IC50 [2]: 2130 nM
SMILES: Cc1cc(C)c(NC(=O)Nc2cc3ccccc3cc2C(=O)N[C@H](CC(=O)O)C2CCCCC2)c(C)c1 [Example 338, (3R)-3-cyclohexyl-3-({[3-({[(2,4,6-trimethylphenyl)amino]carbonyl}amino)-2-naphthalenyl]carbonyl}amino)propanoic acid]

IC50 [1]: 3730 nM
SMILES: Cc1ccccc1NC(=O)Nc1cc2ccccc2cc1C(=O)N[C@@H](Cc1c[nH]c2ccccc12)C(=O)O [Example 46, N-[3-({[(2-methylphenyl)amino]carbonyl}amino)-2-naphthoyl]-L-tryptophan]

IC50 [1]: 163 nM
SMILES: Cc1cccc(C)c1NC(=O)Nc1cc(-c2ccccc2)ccc1C(=O)N[C@H](C(=O)O)C1CCCCC1 [Example 175, (2S)-Cyclohexyl({[3-({[(2,6-dimethylphenyl)amino]carbonyl}amino)-4-biphenylyl]carbonyl}amino)ethanoic acid]

IC50 [1]: 19800 nM
SMILES: COc1cc(NC(=O)Nc2c(C)cccc2Cl)c(C(=O)N[C@@H](CC(=O)O)C(=O)O)cc1OC [Example 67, N-[2-({[(2-chloro-6-methylphenyl)amino]carbonyl}amino)-4,5-dimethoxybenzoyl]-L-aspartic acid]

IC50 [2]: 4 nM
SMILES: CCCc1cc(C)c(NC(=O)Nc2cc(-c3ccc(OC)cc3)ccc2C(=O)N[C@H](C(=O)O)[C@@H](C)OC(C)(C)C)c(C)c1 [Example 236, O-(1,1-Dimethylethyl)-N-{[3-({[(2,6-dimethyl-4-propylphenyl)amino]carbonyl}amino)-4′-(methyloxy)-4-biphenylyl]carbonyl}-L-threonine]
